From patent US10233182B2, “Substituted spirocyclic inhibitors of autotaxin” (X-Rx, Inc., priority 2014, dated 2019) come the findings set out here.

Where a name gives a salt, the structure may show the parent alone.

The test deals with Autotaxin (Homo sapiens (Human), UniProt Q13822). As to the kind of experiment: Autotaxin LPC Cascade Assay. Format: biochemical. The note with it: Autotaxin 5 nM, LPC 100 μM, choline oxidase/HRP/Ampliflu Red fluorescence read-out, 2% DMSO, RT; read-out: IC50 ATX Activity. In outline: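 Choline liberated from LPC by autotaxin during 1 h, after a 10-min RT compound preincubation, was converted through choline oxidase/HRP to a fluorescent Ampliflu Red product.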
Turning to `Cc1ccc(N2C(=O)N(C)C(=O)C23CCN(C(=O)[C@H](NC(=O)c2cc(C(F)(F)F)ccc2F)C(C)C)CC3)cc1` [Example 184, (R)-2-Fluoro-N-(3-methyl-1-(3-methyl-2,4-dioxo-1-p-tolyl-1,3,8-triazaspiro[4.5]decan-8-yl)-1-oxobutan-2-yl)-5-(trifluoromethyl)benzamide], the IC50 (usually the concentration that inhibits the measured activity by half) was < 0.5 µM.

Consider `CC(C)[C@@H](NC(=O)c1cc(C(F)(F)F)ccc1F)C(=O)N1CCC2(CC1)C(=O)N(C)C(=O)N2c1ccc2[nH]ccc2c1` [Example 185, (R)—N-(1-(1-(1H-Indol-5-yl)-3-methyl-2,4-dioxo-1,3,8-triazaspiro[4.5]decan-8-yl)-3-methyl-1-oxobutan-2-yl)-2-fluoro-5-(trifluoromethyl)benzamide], for which the IC50 was < 0.5 µM.

Take `CC(C)[C@@H](NC(=O)c1cc(C(F)(F)F)ccc1F)C(=O)N1CCC2(CC1)C(=O)N(C)C(=O)N2c1ccc(C(F)(F)F)cc1` [Example 186, (R)-2-Fluoro-N-(3-methy-1-(3-methyl-2,4-dioxo-1-(4-(trifluoromethyl)phenyl)-1,3,8-triazaspiro[4.5]decan-8-yl)-1-oxobutan-2-yl)-5-(trifluoromethyl)benzamide]: the half-maximal inhibitory concentration (IC50) was < 0.5 µM.

Take `CC(C)[C@@H](NC(=O)c1cc(C(F)(F)F)ccc1F)C(=O)N1CCC2(CC1)C(=O)N(C)C(=O)N2c1cccc(Cl)c1` [Example 187, (R)—N-(1-(1-(3-Chlorophenyl)-3-methyl-2,4-dioxo-1,3,8-triazaspiro[4.5]decan-8-yl)-3-methyl-1-oxobutan-2-yl)-2-fluoro-5-(trifluoromethyl)benzamide]: the IC50 is < 0.5 µM.

Turning to `CC(C)[C@@H](NC(=O)c1cc(C(F)(F)F)ccc1F)C(=O)N1CCC2(CC1)C(=O)N(C)C(=O)N2c1ccccn1` [Example 188, (R)-2-Fluoro-N-(3-methyl-1-(3-methyl-2,4-dioxo-1-(pyridin-2-yl)-1,3,8-triaza-spiro[4.5]decan-8-yl)-1-oxobutan-2-yl)-5-(trifluoromethyl)benzamide], the IC50 lay within 0.5 to 1 µM.

Regarding `CC(C)[C@@H](NC(=O)c1cc(C(F)(F)F)ccc1F)C(=O)N1CCC2(CC1)C(=O)N(C)C(=O)N2c1cccnc1` [Example 189, (R)-2-Fluoro-N-(3-methyl-1-(3-methyl-2,4-dioxo-1-(pyridin-3-yl)-1,3,8-triaza-spiro[4.5]decan-8-yl)-1-oxobutan-2-yl)-5-(trifluoromethyl)benzamide], the 50% inhibitory concentration (IC50) was in the range of 0.5 to 1 µM.

For `[2H]c1ccc(N2C(=O)N(C)C(=O)C23CCN(C(=O)[C@H](NC(=O)c2cc(C(F)(F)F)ccc2F)C(C)C)CC3)cc1` [Example 190], the IC50 is < 0.5 µM.

For the compound `CC(C)[C@@H](NC(=O)c1cc(C(F)(F)F)ccc1F)C(=O)N1CCC2(CC1)C(=O)N(C)C(=O)N2c1ccc2c(c1)OCO2` [Example 191, (R)—N-(1-(1-(Benzo[d][1,3]dioxol-5-yl)-3-methyl-2,4-dioxo-1,3,8-triazaspiro[4.5]decan-8-yl)-3-methyl-1-oxobutan-2-yl)-2-fluoro-5-(trifluoromethyl)benzamide], the IC50 is < 0.5 µM.

As to `Cc1cccc(C(=O)N[C@@H](C(=O)N2CCC3(CC2)C(=O)N(C)CN3c2cccc(Cl)c2)C(C)C)c1` [Example 192, (R)—N-(1-(1-(3-Chlorophenyl)-3-methyl-4-oxo-1,3,8-triazaspiro[4.5]decan-8-yl)-3-methyl-1-oxobutan-2-yl)-3-methylbenzamide], the 50% inhibitory concentration (IC50) is < 0.5 µM.

As to `Cc1cccc(C(=O)N[C@@H](C(=O)N2CCC3(CC2)C(=O)N(C)CN3c2ccc(Cl)cc2)C(C)C)c1` [Example 193, (R)—N-(1-(1-(4-Chlorophenyl)-3-methyl-4-oxo-1,3,8-triazaspiro[4.5]decan-8-yl)-3-methyl-1-oxobutan-2-yl)-3-methylbenzamide], the 50% inhibitory concentration (IC50) was < 0.5 µM.

For `Cc1cccc(C(=O)N[C@@H](C(=O)N2CCC3(CC2)C(=O)N(C)CN3c2cccc(Br)c2)C(C)C)c1` [Example 194, (R)—N-(1-(1-(3-Bromophenyl)-3-methyl-4-oxo-1,3,8-triazaspiro[4.5]decan-8-yl)-3-methyl-1-oxobutan-2-yl)-3-methylbenzamide], the IC50 was < 0.5 µM.

`Cc1cccc(C(=O)N[C@@H](C(=O)N2CCC3(CC2)C(=O)N(C)CN3c2cccnc2)C(C)C)c1` [Example 195, (R)-3-Methyl-N-(3-methyl-1-(3-methyl-4-oxo-1-(pyridin-3-yl)-1,3,8-triazaspiro[4.5]decan-8-yl)-1-oxobutan-2-yl)benzamide]: the half-maximal inhibitory concentration (IC50) is ≥ 1 µM.

On to `Cc1cccc(C(=O)N[C@@H](C(=O)N2CCC3(CC2)C(=O)N(C)CN3c2ccccc2Cl)C(C)C)c1` [Example 196, (R)—N-(1-(1-(2-Chlorophenyl)-3-methyl-4-oxo-1,3,8-triazaspiro[4.5]decan-8-yl)-3-methyl-1-oxobutan-2-yl)-3-methylbenzamide], for which the IC50 is < 0.5 µM.

Consider `COc1ccc(N2CN(C)C(=O)C23CCN(C(=O)[C@H](NC(=O)c2cccc(C)c2)C(C)C)CC3)cc1` [Example 197, (R)—N-(1-(1-(4-Methoxyphenyl)-3-methyl-4-oxo-1,3,8-triazaspiro[4.5]decan-8-yl)-3-methyl-1-oxobutan-2-yl)-3-methylbenzamide], for which the half-inhibitory concentration (IC50) is < 0.5 µM.

`COc1cccc(N2CN(C)C(=O)C23CCN(C(=O)[C@H](NC(=O)c2cccc(C)c2)C(C)C)CC3)c1` [Example 198, (R)—N-(1-(1-(3-Methoxyphenyl)-3-methyl-4-oxo-1,3,8-triazaspiro[4.5]decan-8-yl)-3-methyl-1-oxobutan-2-yl)-3-methylbenzamide]: the IC50 was < 0.5 µM.

For the compound `Cc1cccc(C(=O)N[C@@H](C(=O)N2CCC3(CC2)C(=O)N(C)CN3c2ccc(Br)cc2)C(C)C)c1` [Example 199, (R)—N-(1-(1-(4-Bromophenyl)-3-methyl-4-oxo-1,3,8-triazaspiro[4.5]decan-8-yl)-3-methyl-1-oxobutan-2-yl)-3-methylbenzamide], the 50% inhibitory concentration (IC50) was < 0.5 µM.

`CCc1ccc(F)c(C(=O)N[C@@H](C(=O)N2CCC3(CC2)C(=O)N(C)CN3c2ccc(S(C)(=O)=O)cc2)C(C)C)c1` [Example 200, (R)-5-Ethyl-2-fluoro-N-(3-methyl-1-(3-methyl-1-(4-(methylsulfonyl)phenyl)-4-oxo-1,3,8-triazaspiro[4.5]decan-8-yl)-1-oxobutan-2-yl)benzamide]: the IC50 was < 0.5 µM.

Consider `CCc1ccc(F)c(C(=O)N[C@@H](C(=O)N2CCC3(CC2)C(=O)N(C)CN3c2ccc(=O)n(C)c2)C(C)C)c1` [Example 201, (R)-5-Ethyl-2-fluoro-N-(3-methyl-1-(3-methyl-1-(1-methyl-6-oxo-1,6-dihydropyridin-3-yl)-4-oxo-1,3,8-triazaspiro[4.5]decan-8-yl)-1-oxobutan-2-yl)benzamide], for which the IC50 is < 0.5 µM.

Turning to `CCc1ccc(F)c(C(=O)N[C@@H](C(=O)N2CCC3(CC2)C(=O)N(C)CN3c2ccc(OC)cc2)C(C)C)c1` [Example 202, (R)-5-Ethyl-2-fluoro-N-(1-(1-(4-methoxyphenyl)-3-methyl-4-oxo-1,3,8-triazaspiro[4.5]decan-8-yl)-3-methyl-1-oxobutan-2-yl)benzamide], the IC50 is < 0.5 µM.

Consider `CCc1ccc(F)c(C(=O)N[C@@H](C(=O)N2CCC3(CC2)C(=O)N(C)CN3c2ccc3oc(=O)n(C)c3c2)C(C)C)c1` [Example 203, (R)-5-Ethyl-2-fluoro-N-(3-methyl-1-(3-methyl-1-(3-methyl-2-oxo-2,3-dihydrobenzo[d]oxazol-5-yl)-4-oxo-1,3,8-triazaspiro[4.5]decan-8-yl)-1-oxobutan-2-yl)benzamide], for which the IC50 was < 0.5 µM.

As for `CC(C)[C@@H](NC(=O)c1cc(C(F)(F)F)ccc1F)C(=O)N1CCC2(CC1)C(=O)N(C)CN2c1ccc(=O)n(C)c1` [Example 204, (R)-2-Fluoro-N-(3-methyl-1-(3-methyl-1-(1-methyl-6-oxo-1,6-dihydropyridin-3-yl)-4-oxo-1,3,8-triazaspiro[4.5]decan-8-yl)-1-oxobutan-2-yl)-5-(trifluoromethyl)benzamide], the IC50 was < 0.5 µM.

With `CC(C)[C@@H](NC(=O)c1cc(C(F)(F)F)ccc1F)C(=O)N1CCC2(CC1)C(=O)N(C)CN2c1ccc(S(C)(=O)=O)cc1` [Example 205, (R)-2-Fluoro-N-(3-methyl-1-(3-methyl-1-(4-(methylsulfonyl)phenyl)-4-oxo-1,3,8-triazaspiro[4.5]decan-8-yl)-1-oxobutan-2-yl)-5-(trifluoromethyl)benzamide], the IC50 is < 0.5 µM.

With `CC(C)[C@@H](NC(=O)c1cc(C(F)(F)F)ccc1F)C(=O)N1CCC2(CC1)C(=O)N(C)CN2c1ccc2nccn2c1` [Example 206, (R)-2-Fluoro-N-(1-(1-(imidazo[1,2-a]pyridin-6-yl)-3-methyl-4-oxo-1,3,8-triazaspiro[4.5]decan-8-yl)-3-methyl-1-oxobutan-2-yl)-5-(trifluoromethyl)benzamide trifluoroacetic Acid Salt], the IC50 is < 0.5 µM.

For `CC(C)[C@@H](NC(=O)c1cc(Cl)cc(C(F)(F)F)c1)C(=O)N1CCC2(CC1)C(=O)N(C)CN2c1ccc(=O)n(C)c1` [Example 207, (R)-3-Chloro-N-(3-methyl-1-(3-methyl-1-(1-methyl-6-oxo-1,6-dihydropyridin-3-yl)-4-oxo-1,3,8-triazaspiro[4.5]decan-8-yl)-1-oxobutan-2-yl)-5-(trifluoromethyl)benzamide], the concentration for half-maximal inhibition (IC50) was < 0.5 µM.

Regarding `CN1CN(c2ccc(=O)n(C)c2)C2(CCN(C(=O)[C@H](NC(=O)c3cc(C(F)(F)F)ccc3F)C3CCCC3)CC2)C1=O` [Example 208, (R)—N-(1-Cyclopentyl-2-(3-methyl-1-(1-methyl-6-oxo-1,6-dihydropyridin-3-yl)-4-oxo-1,3,8-triazaspiro[4.5]decan-8-yl)-2-oxoethyl)-2-fluoro-5-(trifluoromethyl)benzamide], the IC50 is < 0.5 µM.

On to `COc1ccc(N2C(C)N(C)C(=O)C23CCN(C(=O)[C@H](NC(=O)c2cc(C(F)(F)F)ccc2F)C(C)C)CC3)cc1` (stereo partly drawn) [Example 209, 2-Fluoro-N-((2R)-1-(1-(4-methoxyphenyl)-2,3-dimethyl-4-oxo-1,3,8-triazaspiro[4.5]decan-8-yl)-3-methyl-1-oxobutan-2-yl)-5-(trifluoromethyl)benzamide], for which the half-maximal inhibitory concentration (IC50) was < 0.5 µM.
